Measured values reported in patent US20250017935A1, “7,8-DIHYDRO-5H-1,6-NAPHTHYRIDINE DERIVATIVES AS POSITIVE ALLOSTERIC MODULATORS OF THE MUSCARINIC ACETYLCHOLINE RECEPTOR M4 FOR TREATING NEUROLOGICAL AND PSYCHIATRIC DISORDERS” (Vanderbilt University, priority 2021, published 2025).

Target: T1, Human M4 (Homo sapiens, UniProt P08173)
T1 construct: expressed in transfected cells; host or cells: CHO-K1 (ATCC), stably expressing hM4 and Gqi5
T1 sequence (P08173 1-479): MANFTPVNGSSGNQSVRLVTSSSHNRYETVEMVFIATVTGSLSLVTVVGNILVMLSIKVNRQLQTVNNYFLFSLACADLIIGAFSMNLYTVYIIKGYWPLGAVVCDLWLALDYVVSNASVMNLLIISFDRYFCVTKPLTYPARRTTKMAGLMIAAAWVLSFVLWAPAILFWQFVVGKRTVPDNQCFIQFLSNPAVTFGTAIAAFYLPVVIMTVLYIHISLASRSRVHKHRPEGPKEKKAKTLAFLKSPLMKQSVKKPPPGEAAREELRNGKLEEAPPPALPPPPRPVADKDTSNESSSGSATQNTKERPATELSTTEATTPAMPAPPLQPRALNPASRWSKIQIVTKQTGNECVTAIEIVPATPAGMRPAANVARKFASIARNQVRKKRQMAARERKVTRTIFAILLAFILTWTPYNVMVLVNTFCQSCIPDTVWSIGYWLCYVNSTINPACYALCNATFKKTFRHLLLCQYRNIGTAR
Experiment: mAChR M4 cell-based functional assay (calcium flux, potentiation of EC20 acetylcholine response) in hM4-Gqi5 CHO-K1 cells
Settings: for Emax at 30 µM: % ACh maximum at 30 μM, human M4 CHO-K1 cells; for EC50: CHO-K1 cells transfected with human M4 and Gqi5, positive allosteric modulator activity, EC20 acetylcholine
Procedure: Human M4 cDNA, along with the chimeric G protein Gqi5, were transfected into Chinese hamster ovary (CHO-K1) cells purchased from the American Type Culture Collection using commercially available Lipofectamine 2000 transfection reagent (Dalby, B. et al., Methods (2004) 33(2), 95-103). hM4-Gqi5 cells were grown in Ham's F-12 medium containing 10% heat-inactivated fetal bovine serum (FBS), 20 mM HEPES, 50 μg/mL G418 sulfate (CAS #108321-42-2), and 500 μg/mL Hygromycin B. rM4-Gqi5 cells were grown in DMEM containing 10% heat-inactivated FBS, 20 mM HEPES, 400 μg/mL G418 sulfate, and 500 μg/mL Hygromycin B.
For high throughput measurement of agonist-evoked increases in intracellular calcium, CHO-K1 cells stably expressing muscarinic receptors were plated in growth medium lacking G418 sulfate and hygromycin at 15,000 cells/20 μL/well in Greiner 384-well black-walled, tissue culture (TC)-treated, clear-bottom plates (VWR). Cells were incubated overnight at 37° C. and 5% CO2. The next day, cells were washed using an ELX 405 (BioTek) with assay buffer; the final volume was then aspirated to 20 μL. Next, 20 μL of a 2.3 μM stock of Fluo-4/acetoxymethyl ester (Invitrogen, Carlsbad, CA), prepared as a 2.3 mM stock in DMSO and mixed in a 1:1 ratio with 10% (w/v) Pluronic F-127 and diluted in assay buffer, was added to the wells and the cell plates were incubated for 50 minutes at 37° C. and 5% CO2. Dye was removed by washing with the ELX 405 and the final volume was aspirated to 20 μL. Compound master plates were formatted in an 11 point concentration-response curve (CRC) format (1:3 dilutions) in 100% DMSO with a starting concentration of 10 mM using a BRAVO liquid handler (Agilent). Test compound CRCs were then transferred to daughter plates (240 nL) using the Echo acoustic plate reformatter (Labcyte, Sunnyvale, CA) and then diluted into assay buffer (40 μL) to a 2× stock using a Thermo Fisher Combi (Thermo Fisher Scientific, Waltham, MA).
Calcium flux was measured using the Functional Drug Screening System (FDSS) 6000 or 7000 (Hamamatsu Corporation, Tokyo, Japan) as an increase in the fluorescent static ratio. Compounds were applied to cells (20 μL, 2×) using the automated system of the FDSS at 2-4 seconds into the protocol and the data were collected at 1 Hz. […] Agonist activity was analyzed as a concentration-dependent increase in calcium mobilization upon compound addition. Positive allosteric modulator activity was analyzed as a concentration-dependent increase in the EC20 acetylcholine response. With the acetylcholine EC20 set as baseline, the test compound EC50 is determined as the concentration that produces an increase above baseline of 50% of the maximum increase in acetylcholine response elicted by the test compound. Antagonist activity was analyzed as a concentration-dependent decrease in the EC80 acetylcholine response. Concentration-response curves were generated using a four-parameter logistical equation in XLFit curve fitting software (IDBS, Bridgewater, NJ) for Excel (Microsoft, Redmond, WA) or Prism (GraphPad Software, Inc., San Diego, CA).
Compounds were synthesized as described above. Activity (EC50 and Emax) was determined in the mAChR M4 cell-based functional assay as described above and the data are shown in Table 5. The compound numbers correspond to the compound numbers used in Examples 1-13 and Tables 1, 2, and 3.

Cc1ncc(-c2cnc3c(c2)CN(c2ncnc4occ(C)c24)CC3)s1 [Compound 49, 5-methyl-4-[3-(2-methylthiazol-5-yl)-7,8-dihydro-5H-1,6-naphthyridin-6-yl]furo[2,3-d]pyrimidine]
Emax at 30 µM: 68%
EC50: 130 nM

Cc1csc2c(N3CCc4ncc(N5CCOc6ncccc65)cc4C3)ncnc12 [Compound 24, 1-[6-(7-methylthieno[3,2-d]pyrimidin-4-yl)-7,8-dihydro-5H-1,6-naphthyridin-3-yl]-2,3-dihydropyrido[2,3-b][1,4]oxazine]
Emax at 30 µM: 70%
EC50: 220 nM

Cc1ccc(-c2cnc3c(c2)CN(c2ncnc4sc(C)cc24)CC3)cn1 [Compound 14, 6-methyl-4-[3-(6-methyl-3-pyridyl)-7,8-dihydro-5H-1,6-naphthyridin-6-yl]thieno[2,3-d]pyrimidine]
Emax at 30 µM: 97%
EC50: 190 nM

Cc1csc2ncnc(N3CCc4ncc(-c5cnn(C6CC6)c5)cc4C3)c12 [Compound 26, 4-[3-(1-cyclopropylpyrazol-4-yl)-7,8-dihydro-5H-1,6-naphthyridin-6-yl]-5-methyl-thieno[2,3-d]pyrimidine]
Emax at 30 µM: 75%
EC50: 280 nM

Fc1ncccc1Nc1cnc2c(c1)CN(c1nc(Cl)nc3c1COC3)CC2 [Compound 68, 6-(2-chloro-5,7-dihydrofuro[3,4-d]pyrimidin-4-yl)-N-(2-fluoropyridin-3-yl)-5,6,7,8-tetrahydro-1,6-naphthyridin-3-amine]
Emax at 30 µM: 51%
EC50: 920 nM

Cc1ccc(-c2cnc3c(c2)CN(c2ncnc4onc(C)c24)CC3)cn1 [Compound 51, 3-methyl-4-[3-(6-methyl-3-pyridyl)-7,8-dihydro-5H-1,6-naphthyridin-6-yl]isoxazolo[5,4-d]pyrimidine]
Emax at 30 µM: 89%
EC50: 510 nM

Cc1noc2ncnc(N3CCc4ncc(N5CCOc6ncccc65)cc4C3)c12 [Compound 50, 1-[6-(3-methylisoxazolo[5,4-d]pyrimidin-4-yl)-7,8-dihydro-5H-1,6-naphthyridin-3-yl]-2,3-dihydropyrido[2,3-b][1,4]oxazine]
Emax at 30 µM: 100%
EC50: 240 nM

Cc1csc2c(N3CCc4ncc(-c5cnn(C6CC6)c5)cc4C3)ncnc12 [Compound 4, 4-[3-(1-cyclopropylpyrazol-4-yl)-7,8-dihydro-5H-1,6-naphthyridin-6-yl]-7-methyl-thieno[3,2-d]pyrimidine]
Emax at 30 µM: 43%
EC50: 770 nM

Cc1coc2ncnc(N3CCc4ncc(Cc5cccc(F)c5)cc4C3)c12 [Compound 54, 4-[3-[(3-fluorophenyl)methyl]-7,8-dihydro-5H-1,6-naphthyridin-6-yl]-5-methyl-furo[2,3-d]pyrimidine]
Emax at 30 µM: 78%
EC50: 500 nM

[2H]c1csc2ncnc(N3CCc4ncc(C(F)(F)F)cc4C3)c12 [Compound 36, 5-deuterio-4-[3-(trifluoromethyl)-7,8-dihydro-5H-1,6-naphthyridin-6-yl]thieno[2,3-d]pyrimidine]
Emax at 30 µM: 78%
EC50: 160 nM

Cc1coc2ncnc(N3CCc4ncc(Cc5ccccc5F)cc4C3)c12 [Compound 53, 4-[3-[(2-fluorophenyl)methyl]-7,8-dihydro-5H-1,6-naphthyridin-6-yl]-5-methyl-furo[2,3-d]pyrimidine]
Emax at 30 µM: 81%
EC50: 280 nM

Cc1ccc(F)c(Oc2cnc3c(c2)CN(c2ncnc4ccsc24)CC3)c1 [Compound 27, 4-[3-(2-fluoro-5-methyl-phenoxy)-7,8-dihydro-5H-1,6-naphthyridin-6-yl]thieno[3,2-d]pyrimidine]
Emax at 30 µM: 36%
EC50: 2380 nM

FC(F)(F)c1cnc2c(c1)CN(c1nc(C3CC3)nc3c1CCC3)CC2 [Compound 58, 6-(2-cyclopropyl-6,7-dihydro-5H-cyclopenta[d]pyrimidin-4-yl)-3-(trifluoromethyl)-7,8-dihydro-5H-1,6-naphthyridine]
Emax at 30 µM: 88%
EC50: 1480 nM

Cc1csc2c(N3CCc4ncc(C(F)(F)F)cc4C3)ncnc12 [Compound 11, 7-methyl-4-[3-(trifluoromethyl)-7,8-dihydro-5H-1,6-naphthyridin-6-yl]thieno[3,2-d]pyrimidine]
Emax at 30 µM: 63%
EC50: 500 nM

Cc1cc2c(N3CCc4ncc(-c5cnc(C)s5)cc4C3)ncnc2s1 [Compound 21, 6-methyl-4-[3-(2-methylthiazol-5-yl)-7,8-dihydro-5H-1,6-naphthyridin-6-yl]thieno[2,3-d]pyrimidine]
Emax at 30 µM: 88%
EC50: 250 nM

FC(F)(F)c1cnc2c(c1)CN(c1ncnc3scc(Br)c13)CC2 [Compound 29, 5-bromo-4-[3-(trifluoromethyl)-7,8-dihydro-5H-1,6-naphthyridin-6-yl]thieno[2,3-d]pyrimidine]
Emax at 30 µM: 74%
EC50: 310 nM

Cc1nc2c(c(N3CCc4ncc(C(F)(F)F)cc4C3)n1)CCC2 [Compound 59, 6-(2-methyl-6,7-dihydro-5H-cyclopenta[d]pyrimidin-4-yl)-3-(trifluoromethyl)-7,8-dihydro-5H-1,6-naphthyridine]
Emax at 30 µM: 87%
EC50: 1030 nM

Cc1csc2ncnc(N3CCc4ncc(Oc5ccccc5F)cc4C3)c12 [Compound 32, 4-[3-(2-fluorophenoxy)-7,8-dihydro-5H-1,6-naphthyridin-6-yl]-5-methyl-thieno[2,3-d]pyrimidine]
Emax at 30 µM: 59%
EC50: 560 nM

Cc1cc2c(N3CCc4ncc(N5CCOc6ncccc65)cc4C3)ncnc2s1 [Compound 13, 1-[6-(6-methylthieno[2,3-d]pyrimidin-4-yl)-7,8-dihydro-5H-1,6-naphthyridin-3-yl]-2,3-dihydropyrido[2,3-b][1,4]oxazine]
Emax at 30 µM: 121%
EC50: 70 nM

Fc1ccccc1Oc1cnc2c(c1)CN(c1nc(Cl)nc3c1COC3)CC2 [Compound 69, 2-chloro-4-(3-(2-fluorophenoxy)-7,8-dihydro-1,6-naphthyridin-6(5H)-yl)-5,7-dihydrofuro[3,4-d]pyrimidine]
Emax at 30 µM: 42%
EC50: 990 nM

Cc1noc(C)c1-c1cnc2c(c1)CN(c1ncnc3sc(C(C)C)cc13)CC2 [Compound 35, 4-[6-(6-isopropylthieno[2,3-d]pyrimidin-4-yl)-7,8-dihydro-5H-1,6-naphthyridin-3-yl]-3,5-dimethyl-isoxazole]
Emax at 30 µM: 22%
EC50: 1230 nM

FC(F)(F)c1cnc2c(c1)CN(c1ncnc3sc(Br)cc13)CC2 [Compound 30, 6-bromo-4-[3-(trifluoromethyl)-7,8-dihydro-5H-1,6-naphthyridin-6-yl]thieno[2,3-d]pyrimidine]
Emax at 30 µM: 88%
EC50: 80 nM

Cc1cc2c(N3CCc4ncc(Oc5ccccc5F)cc4C3)ncnc2s1 [Compound 3, 4-[3-(2-fluorophenoxy)-7,8-dihydro-5H-1,6-naphthyridin-6-yl]-6-methyl-thieno[2,3-d]pyrimidine]
Emax at 30 µM: 80%
EC50: 630 nM
